For data set [1], the system named is salmon lice. Nature of the data set: Toxicity to salmon lice, contact action test in sea water beakers. Format: in vivo, salmon louse. The note with it: after 24 hours; lowest concentration of 5 μg/l in sea water, 10° C.; adult salmon lice. The procedure:
Biological Examples 1. Toxicity to Salmon Lice (In Vitro Test) a) Collecting and Cultivating the Salmon Lice
Adult and pre-adult stages of the salmon louse are gently removed with broad forceps from naturally infected Atlantic salmon which have been kept in fish farms, separated according to stage and sex, and kept in sea water tanks at 10° C. and under continuous aeration. The sea water used for cultivating the lice comes from the fish farm from which the infected salmon have been taken. The tests themselves are carried out over 48 hours after collecting the lice.
b) In Vivo Test for Determining the Contact Action of the Control Agent
Into each of three test sets of three 500 ml-glass beakers, filled with sea water (salinity […], temperature 10° C.) containing 5, 500 and 5000 μg/l of the active substance, respectively, 5 female and 5 male adults of salmon lice are added. The beaker are then transferred to an incubator and held at 10° C. for 48 hours in the dark. Live survival of the salmon lice is determined at 1, 24 and 48 hours from the start of the exposure. All lice are examined and recorded as alive, moribund or dead.

For data set [2], the system named is salmon lice. Nature of the data set: Toxicity against salmon lice (in vivo test) on naturally infected Atlantic salmon, bath treatment. As to conditions: long lasting tests on salmon; one single treatment at 0.1 ppm. The procedure: 2. Toxicity Against Salmon Lice (In Vivo Test)
Five naturally infected Atlantic salmon are taken from the cage and transferred to well aerated sea water tanks. They remain there for 48 hours for acclimatization, and feed is withheld for 24 hours before the addition of test compound. A group of 5 salmon is treated at a concentration of 1.0 ppm of test compound, and a second group of 5 salmon is treated at a concentration of 0.1 ppm. The fish are kept for 24 hours in fresh sea water (without test compound) and a count is then made of dead and still living parasites. An untreated group of fish is also included in the evaluation. The test is carried out in triplicate.

A further data set relates to fish. In words: Tolerance by fish in long lasting tests on salmon. It counts as in vivo.
A further data set relates to sea lice. As to conditions: in sea water; cited from earlier work.

Results on five compounds are retold here after patent publication US8128943B2, “Use of oxazole derivatives for controlling fish parasites” (Novartis AG, priority 2005, dated 2012).

Molecules are shown by their SMILES.

As for `FC(F)(F)c1ccc(-c2ccc(C3COC(c4c(Cl)cccc4Cl)=N3)cc2)cc1` (centres unmarked) [2-(2,6-Dichlorophenyl)-4-(4′-trifluoromethylbiphenyl-4-yl)-4,5-dihydro-oxazole], the survival rate with salmon lice [1] was 0%.
In the data set on salmon lice [1], `Fc1cccc(F)c1C1=NC(c2ccc(-c3ccc(C(F)(F)F)cc3)cc2)CO1` (centres unmarked) [2-(2,6-Difluorophenyl)-4-(4′-trifluoromethylbiphenyl-4-yl)-4,5-dihydro-oxazole] gave a survival rate of 0%. Further, in the data set with salmon lice [2], the control is given as 100% and the “duration of 100% control” value is “at least 3 month”. Moreover, the tolerance by fish entry with fish is on record as “well tolerated by fish”.
Turning to `Fc1cccc(Cl)c1C1=NC(c2ccc(-c3ccc(C(F)(F)F)cc3)cc2)CO1` (centres unmarked) [2-(2-Chloro-6-fluorophenyl)-4-(4′-trifluoromethylbiphenyl-4-yl)-4,5-dihydro-oxazole], the survival rate with salmon lice [1] is given as 0%.
For `COP(=O)(OC)OC=C(Cl)Cl` [Dichlorvos, 2,2-dichloroethenyldimethyl phosphate], the “concentration required / effective to combat sea lice” value in the data set with sea lice was not below 1 ppm.
Regarding `COP(=O)(OC)C(O)C(Cl)(Cl)Cl` (centres unmarked) [Trichlorfon, dimethyl-2,2,2-trichloro-1-hydroxyethylphosphonate], the “concentration required / effective to combat sea lice” value in the data set with sea lice is given as 300 ppm.
